For this experiment, the system named is A2780. As to the kind of experiment: Cell proliferation assay, A2780 (ovarian). The experiment is classed as cell-based. As to conditions: Homo sapiens, 72 hours in presence of compound. As to the method: Seventeen cancer derived cell lines are used (GTL-16, N87, H1975, A549, H69, A2780, PC3, BT474, SKBR3, MCF-7, A375, MV4;11, K562, KM12L4A, H929, OPM-2 and KMS-11) to test the effect of (R)-2-amino-7-[2-(6-methoxy-pyridin-2-yl)-phenyl]-4-methyl-7,8-dihydro-6H-pyrido[4,3-d]pyrimidin-5-one. These cell lines cover the following 9 tumor types: Gastric, Lung, Ovarian, Prostate, Breast, Melanoma, Leukemia, Colon and Multiple myeloma. After division and medium change, cells from stock culture are seeded on cell plates and cultured for about 18 hours to allow cell growth and attachment before starting the assay. Then on the first day of the assay, (R)-2-amino-7-[2-(6-methoxy-pyridin-2-yl)-phenyl]-4-methyl-7,8-dihydro-6H-pyrido[4,3-d]pyrimidin-5-one is added to the medium at various concentrations. Cells are cultured up to 72 or 96 hours and cell proliferation is determined using commercially available cell proliferation kits.
Table 1 relates to the concentration in nM of (R)-2-amino-7-[2-(6-methoxy-pyridin-2-yl)-phenyl]-4-methyl-7,8-dihydro-6H-pyrido[4,3-d]pyrimidin-5-one which inhibits cell proliferation by 50% (IC50). […]

With `COc1cccc(-c2ccccc2[C@H]2Cc3nc(N)nc(C)c3C(=O)N2)n1` [(R)-2-amino-7-[2-(6-methoxy-pyridin-2-yl)-phenyl]-4-methyl-7,8-dihydro-6H-pyrido[4,3-d]pyrimidin-5-one], the concentration for 50% growth inhibition (GI50) was 27 nM.
